Test results from publication PMC9313812, “The Pseudo‐Natural Product Rhonin Targets RHOGDI” (Angewandte Chemie (International Ed. in English), 2022).
Converted amounts (≈) assume the structure as drawn.

Experiments:
[1] = Kinetic solubility determination; type: physicochemical; conditions: for solubility kinetic: aqueous buffer, pH 7.4, aqueous buffer, kinetic from dmso stock, Table S9
Procedure: (1 picture or pasted object on this page, not shown here)
Each sample was tested in triplicate.

NIH/3T3 cells = assay: Smoothened trafficking (ciliary localization of SMO); type: cell-based; conditions: purmorphamine stimulation
Procedure: in fresh medium containing 0.5 % FBS and 5 nM BODIPY-cyclopamine for 4 h. Afterwards, cell nuclei were stained with 1 µg/ml DAPI for 10 min, samples were washed three times with PBS and subsequently mounted on glass slides using Aqua Polymount (Polysciences Inc).
Images were acquired on an Axiovert Observer Z1 microscope (Carl Zeiss, Germany) using a Plan-Apochromat 63x/1.40 Oil DIC M27 objective.
Additionally, SMO binding was confirmed by flow cytometry. HEK293T cells were seeded (3×10^5 per well) in 6-well plate and transfected with BFP-SMO-expressing plasmid using FuGENE HD transfection reagent according to the manufacturer’s instructions. After 48 h of incubation the medium was replaced by DMEM containing 0.5% FBS, 5 nM BODIPY-cyclopamine and various concentrations of the test compounds or DMSO as a control. […]
projections, after previous background subtraction. For quantification, cilia were identified and […]
Smoothened antibody were measured within these areas. […]
significances were assessed using an unpaired t-test (confidence interval of 95%) with the […]
(§1) replicates were performed and for each replicate at least 100 cilia per condition were analyzed.
Reverse transcription- quantitative PCR (RT-qPCR) […]
(§2) DNase I digestion step. The concentration of purified RNA was determined by means of the […]

[2] = tested on: Ptch1 and Gli1 expression in C3H/10T1/2 cells; assay: RT-qPCR of Hh target genes; type: cell-based, mouse; conditions: 1.5 μM purmorphamine, 96 h
Procedure: three times with PBS and mounted on glass slides using Aqua Polymount (Polysciences Inc).
Images were acquired as Z-sections with Leica SP5 confocal microscope using a 63x 1.40 NA
Oil objective (Leica Microsystems CMS GmbH, Mannheim, Germany). Image analysis was
performed using the software ImageJ. Briefly, Z-stacks were converted to intensity sum
projections, after previous background subtraction. For quantification, cilia were identified and
marked based on the acetylated-tubulin staining intensities and the intensities of the anti-
Smoothened antibody were measured within these areas. Results were visualized and
significances were assessed using an unpaired t-test (confidence interval of 95%) with the
software GraphPad Prism 7, GraphPad software, USA). Three independent biological
as §1
Reverse transcription- quantitative PCR (RT-qPCR)
C3H10T1/2 cells were seeded (1×10^5 per well) in 6-well plates. 48 h later cells were treated […]
as §2
QuantiTect Reverse Transcription Kit (Qiagen) according to the manufacturer’s protocol. […]
determined by means of quantitative RT-PCR using the QuantiFast SYBR Green PCR Kit […]
genes. The expression levels of Ptch1 and Gli1 were determined using the 2−ΔΔCt method.[6] […]

Shh-LIGHT2 cells = assay: GLI-dependent reporter gene assay (RGA); type: cell-based; conditions: for Inhibition of GLI-dependent reporter gene expression (in words): Shh-LIGHT2 cells
Procedure: using a three-fold dilution series starting from a concentration of 30 μM. Half-maximal inhibitory concentrations (IC50) were calculated using the Quattro software suite (Quattro Research, Planegg, Germany) or GraphPad Prism 7 (GraphPad, USA). […]
GLI-dependent reporter gene assay
Shh-LIGHT2 cells were seeded (2.5×10^4 per well) in 96-well plates. After incubation for 16 h, medium was replaced by low serum-containing medium (0.5% FCS) supplemented with 1.5 μM purmorphamine and various concentrations of the compounds or DMSO as a control and cells were incubated for 48 h. […]

Row | Solubility (in words) [1] | IC50 (Shh-LIGHT2 cells; Shh Light2, Figure 2a, mean of three independent experiments) | Compound | solubility kinetic [1] | Localization of SMO to cilia (in words) (NIH/3T3 cells) | Expression of the Hh target genes Ptch1 and Gli1 (remaining) ([2]; 5 μM, purmorphamine-treated cells = 100 %) | Inhibition of GLI-dependent reporter gene expression (in words) (Shh-LIGHT2 cells) | Expression of the Hh target genes Ptch1 and Gli1 (in words) [2]
1 | limited solubility | 1600 nM | COC(=O)C1(C(CC(=O)c2ccccc2)c2ccccc2)N=C(c2ccc(Br)cc2)C2C(=O)N(C)C(=O)C21 (stereo not shown) [7a] | 5.7 µM (≈ 3.27 µg/mL) | did not affect the localization of SMO to cilia | approx. 50% | did not inhibit | 
2 |  |  | COC(=O)C1(C(CC(=O)c2cccnc2)c2ccccc2)N=C(c2ccc(Br)cc2)C2C(=O)N(C)C(=O)C21 (stereo not shown) [7l] | 47.3 µM (≈ 27.2 µg/mL) | SMO was localized to the cilia |  | did not suppress | only slightly reduced
